Source: ChEMBL document CHEMBL3779781, “New direct inhibitors of InhA with antimycobacterial activity based on a tetrahydropyran scaffold” (Eur J Med Chem, 2016)
≈ marks a conversion by molar mass, not a printed value.

Assays:
[1] = tested on: Mycobacterium tuberculosis; assay: Antimycobacterial activity against Mycobacterium tuberculosis H37Rv ATCC 25618 after 2 weeks; assay type: functional; conditions: H37Rv ATCC 25618, 336 h
[2] = Kinetic solubility of compound in DMSO/phosphate buffered saline at pH7.4 by chemiluminescent nitrogen detection method; assay type: physicochemical; conditions: pH 7.4, read-out: Kinetic_solubility
[3] = Cytotoxicity against human HepG2 cells by ATP bioluminescence assay; assay type: cell-based; conditions: read-out: TD50 (the source's name)
[4] = Inhibition of Mycobacterium tuberculosis InhA using 2-trans-decenoyl-CoA as substrate by fluorimetric analysis in presence of NADH
[5] = Selectivity index, ratio of TD50 for human HepG2 cells to MIC for Mycobacterium tuberculosis H37Rv ATCC 25618; assay type: toxicity, cell-based; conditions: read-out: Selectivity Index
[6] = tested on: Mycobacterium tuberculosis; assay: Antimycobacterial activity against Mycobacterium tuberculosis H37Rv; assay type: functional
Streptococcus pyogenes [7] = assay: Antibacterial activity against Streptococcus pyogenes 1307006P by broth microdilution assay; assay type: functional
Staphylococcus aureus [8] = assay: Antibacterial activity against Staphylococcus aureus WCUH29 fmt by broth microdilution assay; assay type: functional
Moraxella catarrhalis = assay: Antibacterial activity against Moraxella catarrhalis 1502 by broth microdilution assay; assay type: functional
[9] = biological target: Voltage-gated inwardly rectifying potassium channel KCNH2 (Homo sapiens, UniProt Q12809); assay: Inhibition of human ERG by QPatch assay
Streptococcus pneumoniae [10] = assay: Antibacterial activity against Streptococcus pneumoniae N1387 by broth microdilution assay; assay type: functional
Staphylococcus aureus [11] = assay: Antibacterial activity against Staphylococcus aureus Oxford by broth microdilution assay; assay type: functional
Haemophilus influenzae [12] = assay: Antibacterial activity against Haemophilus influenzae H128 by broth microdilution assay; assay type: functional
Streptococcus pyogenes [13] = assay: Antibacterial activity against Streptococcus pyogenes 1308007P by broth microdilution assay; assay type: functional
Staphylococcus aureus [14] = assay: Antibacterial activity against Staphylococcus aureus WCUH29 by broth microdilution assay; assay type: functional
Enterococcus faecium = assay: Antibacterial activity against Enterococcus faecium X7501 by broth microdilution assay; assay type: functional
[15] = tested on: Mycobacterium tuberculosis; assay: Antimycobacterial activity against Mycobacterium tuberculosis H37Rv by broth microdilution assay; assay type: functional
Haemophilus influenzae [16] = assay: Antibacterial activity against Haemophilus influenzae Q1 by broth microdilution assay; assay type: functional
Enterococcus faecalis = assay: Antibacterial activity against Enterococcus faecalis 1 by broth microdilution assay; assay type: functional
Escherichia coli = assay: Antibacterial activity against Escherichia coli 3 by broth microdilution assay; assay type: functional
Streptococcus pneumoniae [17] = assay: Antibacterial activity against Streptococcus pneumoniae 1629 by broth microdilution assay; assay type: functional
[18] = tested on: Mycobacterium tuberculosis; assay: Antimycobacterial activity against Mycobacterium tuberculosis H37Rv ATCC 25618 infected in human THP1 cells assessed as reduction in cell viability after 5 days by luciferase reporter gene assay; assay type: functional; conditions: H37Rv ATCC 25618, THP-1, 120 h
Haemophilus influenzae [19] = assay: Antibacterial activity against Haemophilus influenzae H128 with Acr A- genotype by broth microdilution assay; assay type: functional
Streptococcus pneumoniae [20] = assay: Antibacterial activity against Streptococcus pneumoniae ERY2 by broth microdilution assay; assay type: functional

Voltage-gated inwardly rectifying potassium channel KCNH2, sequence (Q12809 whole entry): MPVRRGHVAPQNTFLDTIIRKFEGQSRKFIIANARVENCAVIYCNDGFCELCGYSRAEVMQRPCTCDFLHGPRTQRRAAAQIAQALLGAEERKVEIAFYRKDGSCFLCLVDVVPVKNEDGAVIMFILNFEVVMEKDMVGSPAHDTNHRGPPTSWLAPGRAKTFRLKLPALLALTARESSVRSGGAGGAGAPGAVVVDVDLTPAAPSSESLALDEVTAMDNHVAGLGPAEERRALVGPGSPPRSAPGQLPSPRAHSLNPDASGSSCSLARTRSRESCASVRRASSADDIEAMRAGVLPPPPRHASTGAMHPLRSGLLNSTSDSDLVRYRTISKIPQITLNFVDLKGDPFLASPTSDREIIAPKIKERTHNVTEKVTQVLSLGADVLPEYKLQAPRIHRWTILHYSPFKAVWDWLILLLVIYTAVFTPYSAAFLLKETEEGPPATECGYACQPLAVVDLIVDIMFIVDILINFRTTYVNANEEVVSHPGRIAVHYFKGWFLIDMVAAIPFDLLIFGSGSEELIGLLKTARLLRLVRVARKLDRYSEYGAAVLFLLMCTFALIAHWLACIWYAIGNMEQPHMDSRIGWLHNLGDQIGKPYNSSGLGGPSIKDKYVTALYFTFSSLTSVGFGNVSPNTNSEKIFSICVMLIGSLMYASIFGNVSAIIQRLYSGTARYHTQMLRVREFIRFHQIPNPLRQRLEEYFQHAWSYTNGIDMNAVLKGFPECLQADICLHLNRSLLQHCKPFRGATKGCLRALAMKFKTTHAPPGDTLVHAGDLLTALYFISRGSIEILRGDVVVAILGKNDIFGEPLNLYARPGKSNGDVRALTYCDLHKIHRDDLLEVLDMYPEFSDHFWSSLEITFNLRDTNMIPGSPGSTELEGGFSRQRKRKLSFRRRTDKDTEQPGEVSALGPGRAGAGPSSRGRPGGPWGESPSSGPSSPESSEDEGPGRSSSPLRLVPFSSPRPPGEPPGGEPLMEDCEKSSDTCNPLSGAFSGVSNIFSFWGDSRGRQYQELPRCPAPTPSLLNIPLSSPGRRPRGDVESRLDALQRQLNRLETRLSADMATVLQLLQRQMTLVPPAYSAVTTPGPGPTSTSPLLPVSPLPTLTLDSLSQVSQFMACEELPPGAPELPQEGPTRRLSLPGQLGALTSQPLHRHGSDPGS

In the case of O=C(NCC1(c2nc(-c3ccccc3)cs2)CCOCC1)c1ccc(Nc2nncs2)cc1, the MIC [1] is reported as over 125 µM, the solubility kinetic [2] is reported as 29 µM (≈ 13.9 µg/mL) and the CC50 [3] is reported as 63.1 µM. For the same compound, the IC50 [4] was over 10 µM.

Work on COc1ccccc1-c1csc(C2(CNC(=O)c3ccc(Cn4nc(C)cc4C)cc3)CCOCC2)n1 yielded an MIC [1] of 5 µM (≈ 2.58 µg/mL), a solubility kinetic [2] of 78 µM (≈ 40.3 µg/mL) and a CC50 [3] of 50.1 µM. The selectivity ratio [5] was 10 and the IC50 [4] was 0.036 µM.

In the case of O=C(NCC1(c2nc(-c3ccccc3)cs2)CCOCC1)c1ccc(Nc2nc3ccccc3s2)cc1, the MIC [1] is reported as over 125 µM, the solubility kinetic [2] is reported as 4 µM (≈ 2.11 µg/mL) and the CC50 [3] is reported as 12.6 µM. The IC50 [4] was over 10 µM.

Cc1cnc(Nc2ccc(C(=O)NCC3(c4nc(-c5ccccc5)cs4)CCOCC3)cc2)s1 showed an MIC [1] of over 80 µM, a solubility kinetic [2] of under 1 µM and a CC50 [3] of over 100 µM. For the same compound, the IC50 [4] was over 10 µM.

Compound COc1cccc(-c2csc(C3(CNC(=O)c4ccc(Cn5nc(C)cc5C)cc4)CCOCC3)n2)c1 has an MIC [1] of 20 µM (≈ 10.3 µg/mL), a solubility kinetic [2] of 72 µM (≈ 37.2 µg/mL) and a CC50 [3] of 50.1 µM. For the same compound, the IC50 [4] was 0.323 µM.

Work on NNC(=O)c1ccncc1 [ISONIAZID] yielded an MIC [6] of 0.5 µg/mL.

For Cc1cc(C)n(Cc2ccc(C(=O)NCC3(c4ccccn4)CCOCC3)cc2)n1, the MIC [1] was over 125 µM, the solubility kinetic [2] was at least 445 µM and the CC50 [3] was over 100 µM. For the same compound, the IC50 [4] was over 10 µM.

Cn1ccc(Nc2ccc(C(=O)NCC3(c4nc(-c5ccccc5)cs4)CCOCC3)cc2)n1 gave an MIC [1] of over 125 µM, a solubility kinetic [2] of 48 µM (≈ 22.7 µg/mL) and a CC50 [3] of 79.4 µM. For the same compound, the IC50 [4] was 5.56 µM.

With Cc1cc(C)n(-c2ccc(C(=O)NCC3(c4nc(-c5ccccc5)cs4)CCOCC3)cc2)n1 the MIC [1] was 80 µM (≈ 37.8 µg/mL), the solubility kinetic [2] was 33 µM (≈ 15.6 µg/mL) and the CC50 [3] was 87.1 µM. It also gave an IC50 [4] of over 100 µM.

In the case of O=C(NCC1(c2nc(-c3ccccc3)cs2)CCOCC1)c1ccc(Nc2ccccn2)cc1, the MIC [1] is reported as over 80 µM, the solubility kinetic [2] is reported as 12 µM (≈ 5.65 µg/mL) and the CC50 [3] is reported as 63.1 µM. For the same compound, the IC50 [4] was over 10 µM.

For O=C(NCC1(c2nc(-c3ccccc3)cs2)CCOCC1)c1ccc(-n2ccnc2)cc1, the MIC [1] was over 125 µM, the solubility kinetic [2] was 193 µM (≈ 85.8 µg/mL) and the CC50 [3] was over 100 µM. The IC50 [4] was over 1 µM.

Cc1cc(C)n(Cc2ccc(C(=O)NCC3(c4nc(-c5ccccc5)cs4)CCOCC3)cc2)n1 gave an MIC [1] of 11.7 µM (≈ 5.69 µg/mL), an MIC [6] of 7.8 µM and an MIC80 (Streptococcus pyogenes [7]) of over 64 µg/mL. It also gave a solubility kinetic [2] of 115 µM (≈ 56 µg/mL), an MIC80 (Staphylococcus aureus [8]) of over 64 µg/mL and an MIC80 (Moraxella catarrhalis) of 32 µg/mL (≈ 65.8 µM). It also gave a CC50 [3] of 100 µM, an IC50 [9] of 44.9 µM and an MIC80 (Streptococcus pneumoniae [10]) of over 64 µg/mL. For the same compound, the MIC80 (Staphylococcus aureus [11]) was over 64 µg/mL, the MIC80 (Haemophilus influenzae [12]) was over 64 µg/mL and the MIC80 (Streptococcus pyogenes [13]) was over 64 µg/mL. For the same compound, the selectivity ratio [5] was 8.5, the MIC80 (Staphylococcus aureus [14]) was over 64 µg/mL and the MIC80 (Enterococcus faecium) was over 64 µg/mL. It also gave an MIC80 [15] of 5.7 µg/mL (≈ 11.7 µM), an MIC80 (Haemophilus influenzae [16]) of over 64 µg/mL and an MIC80 (Enterococcus faecalis) of over 64 µg/mL. It also gave an MIC80 (Escherichia coli) of over 64 µg/mL, an IC50 [4] of 0.02 µM and an MIC80 (Streptococcus pneumoniae [17]) of over 64 µg/mL. It also gave an IC90 [18] of 3.98 µM, an MIC80 (Haemophilus influenzae [19]) of over 64 µg/mL and an MIC80 (Streptococcus pneumoniae [20]) of over 64 µg/mL.

Work on O=C(NCC1(c2nc(-c3ccccc3)cs2)CCOCC1)c1ccc(N2CCOCC2)cc1 yielded an MIC [1] of over 125 µM, a solubility kinetic [2] of 138 µM (≈ 64 µg/mL) and a CC50 [3] of over 100 µM. The IC50 [4] was over 1 µM.

Work on O=C(NCC1(c2nc(-c3ccccc3)cs2)CCOCC1)c1ccc(-c2cnco2)cc1 yielded an MIC [1] of 125 µM (≈ 55.7 µg/mL), a solubility kinetic [2] of 71 µM (≈ 31.6 µg/mL) and a CC50 [3] of 79.4 µM. It also gave an IC50 [4] of over 1 µM.

COc1ccc(C2(CNC(=O)c3ccc(Cn4nc(C)cc4C)cc3)CCOCC2)cc1 gave an MIC [1] of over 125 µM, a solubility kinetic [2] of at least 458 µM and a CC50 [3] of over 100 µM. For the same compound, the IC50 [4] was 6.38 µM.

Work on Cc1cc(C)n(Cc2ccc(C(=O)NCC3(c4ccc(-c5ccccc5)cc4)CCOCC3)cc2)n1 yielded an MIC [1] of 16 µM (≈ 7.67 µg/mL), a solubility kinetic [2] of 77 µM (≈ 36.9 µg/mL) and a CC50 [3] of 79.4 µM. The selectivity ratio [5] was 5 and the IC50 [4] was 0.029 µM.

In the case of Cn1c(Nc2ccc(C(=O)NCC3(c4nc(-c5ccccc5)cs4)CCOCC3)cc2)nc2ccccc21, the MIC [1] is reported as 94 µM (≈ 49.2 µg/mL), the solubility kinetic [2] is reported as 10 µM (≈ 5.24 µg/mL) and the CC50 [3] is reported as 20 µM. The IC50 [4] was over 10 µM.

In the case of Cc1cc(C)n(Cc2ccc(C(=O)NCC3(c4ccc5c(c4)OCO5)CCOCC3)cc2)n1, the MIC [1] is reported as 125 µM (≈ 55.9 µg/mL), the solubility kinetic [2] is reported as at least 478 µM and the CC50 [3] is reported as over 100 µM. For the same compound, the IC50 [4] was 7.94 µM.

With O=C(NCC1(c2nc(-c3ccccc3)cs2)CCOCC1)c1ccc(CN2CCCCC2)cc1 the MIC [1] was over 125 µM, the solubility kinetic [2] was at least 396 µM and the CC50 [3] was 79.4 µM. The IC50 [4] was over 1 µM.

Compound O=C(NCC1(c2nc(-c3ccccc3)cs2)CCOCC1)c1ccc(-n2cncn2)cc1 has an MIC [1] of 125 µM (≈ 55.7 µg/mL), a solubility kinetic [2] of 191 µM (≈ 85.1 µg/mL) and a CC50 [3] of over 100 µM. The IC50 [4] was over 10 µM.
